According to patent US9957252B2, “Metalloenzyme inhibitor compounds as fungicides” (Dow AgroSciences LLC, priority 2014, dated 2018):
Read-outs that look alike come from different tables or passages of the source.

Tests used:
Format in all cases: in vivo, Mycosphaerella graminicola on wheat plants (variety Yuma)
[1] = Leaf blotch of wheat fungicidal activity, Type B assay (10% EC formulation in 0.1% Trycol 5941, track sprayer 200 L/ha), field isolate; conditions: Zymoseptoria tritici, 72 h, field isolate (Wellsbourne, England 2012), wheat seedlings (Yuma)
Protocol: (§1) Evaluation of Fungicidal Activity: Leaf Blotch of Wheat (Mycosphaerella graminicola; Anamorph: Septoria tritici; Bayer code SEPTTR):
(§2) For Type A assays, technical grades of the experimental fungicides in Table 4 below were dissolved in acetone, and then mixed with nine volumes of water containing 110 ppm Triton X-100. The fungicide solutions were applied onto wheat seedlings using an automated booth sprayer. For Type B assays, emulsifiable concentrate (EC) formulations of technical grades of experimental fungicides in Table 4 below were prepared at 10% (w/v), and then mixed with 150 volumes of 0.1% Trycol 5941. The fungicide solutions were applied onto wheat seedlings using an automated track sprayer at 200 L/ha. All sprayed plants were allowed to air dry prior to further handling.
(§3) Wheat plants (variety Yuma) were grown from seed in a greenhouse in 50% mineral soil/50% soil-less Metro mix until the first leaf was fully emerged, with 7-10 seedlings per pot. Prior to or after application of experimental fungicides, plants were inoculated either with spores of a standard laboratory SEPTTR isolate (SI SEPTTR) or with spores from a SEPTTR field isolate collected from Wellsbourne, England in 2012 (FI SEPTTR). After inoculation, the plants were kept for 3 days at 20° C. in 100% relative humidity (one day in a dark dew chamber followed by two days in a lighted dew chamber). Plants were then transferred to a 20° C. greenhouse for disease development. When disease symptoms were fully expressed on untreated plants, infection levels on treated plants were assessed on a scale of 0 to 100 percent disease severity. Percent disease control was calculated using the ratio of disease severity on treated plants relative to untreated plants.

[2] = tested on: standard laboratory SEPTTR isolate (SI SEPTTR); Mycosphaerella graminicola; Anamorph: Septoria tritici; experiment: Leaf blotch of wheat fungicidal activity, Type B assay (10% EC formulation in 0.1% Trycol 5941, track sprayer 200 L/ha), standard laboratory isolate; conditions: Zymoseptoria tritici, 72 h, wheat seedlings (Yuma)
Protocol: as §1, §2, §3

[3] = tested on: standard laboratory SEPTTR isolate (SI SEPTTR); Mycosphaerella graminicola; Anamorph: Septoria tritici; experiment: Leaf blotch of wheat fungicidal activity, Type A assay (technical grade in acetone/water with Triton X-100, booth sprayer), standard laboratory isolate; conditions: Zymoseptoria tritici, 24 h, 1 Day Protectant, wheat seedlings (Yuma), read-out: Disease control, SI SEPTTR Type A Assay (50 ppm) 1DP
Protocol: as §1, §2, §3

[4] = 3 Day Curative, read-out: Disease control, FI SEPTTR Type B Assay (100 g/ha) 3DC
[5] = 3 Day Protectant, read-out: Disease control, FI SEPTTR Type B Assay (100 g/ha) 3DP
[6] = 3 Day Curative, read-out: Disease control, SI SEPTTR Type B Assay (100 g/ha) 3DC
[7] = 3 Day Protectant, read-out: Disease control, SI SEPTTR Type B Assay (100 g/ha) 3DP

CC(C)(C)C(O)(c1ccc(-c2ccc(OC(F)(F)F)cc2)cc1)c1cncnc1 (stereo not drawn) [Compound 1, 2,2-dimethyl-1-(pyrimidin-5-yl)-1-(4′-(trifluoromethoxy)-[1,1′-biphenyl]-4-yl)propan-1-ol]
pest or weed control at 100 g/ha [1, 4]: 80 to 100%
pest or weed control at 100 g/ha [1, 5]: 80 to 100%
pest or weed control at 100 g/ha [2, 6]: 80 to 100%
pest or weed control at 100 g/ha [2, 7]: 80 to 100%
pest or weed control at 50 ppm [3]: 80 to 100%

CC(C)(C)C(O)(c1ccc(-c2ccc(OC(F)F)cc2)cc1)c1cncnc1 (stereo not drawn) [Compound 2]
pest or weed control at 100 g/ha [1, 4]: 80 to 100%
pest or weed control at 100 g/ha [1, 5]: 80 to 100%
pest or weed control at 100 g/ha [2, 6]: 80 to 100%
pest or weed control at 100 g/ha [2, 7]: 80 to 100%
pest or weed control at 50 ppm [3]: 80 to 100%

CC(C)(C)C(O)(c1ccc(-c2ccc(C#N)cc2)cc1)c1cncnc1 (stereo not drawn) [Compound 3]
pest or weed control at 100 g/ha [1, 4]: 80 to 100%
pest or weed control at 100 g/ha [1, 5]: 60 to 79%
pest or weed control at 100 g/ha [2, 6]: 60 to 79%
pest or weed control at 100 g/ha [2, 7]: 60 to 79%
pest or weed control at 50 ppm [3]: 80 to 100%

CC(C)(C)C(O)(c1cncnc1)c1ccc(-c2ccc(OC(F)(F)F)cc2)cc1Cl (stereo not drawn) [Compound 8]
pest or weed control at 100 g/ha [1, 4]: 80 to 100%
pest or weed control at 100 g/ha [1, 5]: 80 to 100%
pest or weed control at 100 g/ha [2, 6]: 80 to 100%
pest or weed control at 100 g/ha [2, 7]: 80 to 100%
pest or weed control at 50 ppm [3]: 80 to 100%

CC(C)(C)C(O)(c1cncnc1)c1ccc(-c2ccc(C#N)cc2)cc1Cl (stereo not drawn) [Compound 9]
pest or weed control at 100 g/ha [1, 4]: 80 to 100%
pest or weed control at 100 g/ha [1, 5]: 80 to 100%
pest or weed control at 100 g/ha [2, 6]: 80 to 100%
pest or weed control at 100 g/ha [2, 7]: 60 to 79%
pest or weed control at 50 ppm [3]: 80 to 100%

CC(C)(C)C(O)(c1cncnc1)c1ccc(-c2ccc(OC(F)F)cc2)cc1Cl (stereo not drawn) [Compound 10]
pest or weed control at 100 g/ha [1, 4]: 80 to 100%
pest or weed control at 100 g/ha [1, 5]: 60 to 79%
pest or weed control at 100 g/ha [2, 6]: 80 to 100%
pest or weed control at 100 g/ha [2, 7]: 80 to 100%
pest or weed control at 50 ppm [3]: 80 to 100%

CC(C)(C)C(O)(c1cncnc1)c1ccc(-c2ccc(OC(F)(F)F)cc2)cc1F (stereo not drawn) [Compound 15]
pest or weed control at 100 g/ha [1, 4]: 60 to 79%
pest or weed control at 100 g/ha [1, 5]: 80 to 100%
pest or weed control at 100 g/ha [2, 6]: 80 to 100%
pest or weed control at 100 g/ha [2, 7]: 80 to 100%

CC(C)(C)C(O)(c1cncnc1)c1ccc(-c2ccc(OC(F)F)cc2)cc1F (stereo not drawn) [Compound 16]
pest or weed control at 100 g/ha [1, 4]: 80 to 100%
pest or weed control at 100 g/ha [1, 5]: 80 to 100%
pest or weed control at 100 g/ha [2, 6]: 80 to 100%
pest or weed control at 100 g/ha [2, 7]: 80 to 100%

CC(C)(C)C(O)(c1cncnc1)c1ccc(-c2ccc(C#N)cc2)cc1F (stereo not drawn) [Compound 17]
pest or weed control at 100 g/ha [1, 4]: 80 to 100%
pest or weed control at 100 g/ha [1, 5]: 80 to 100%
pest or weed control at 100 g/ha [2, 6]: 80 to 100%
pest or weed control at 100 g/ha [2, 7]: 80 to 100%

CC(C)(C)C(O)(c1ccc(-c2ccc(SC(F)(F)F)cc2)cc1)c1cncnc1 (stereo not drawn) [Compound 19]
pest or weed control at 100 g/ha [1, 4]: 80 to 100%
pest or weed control at 100 g/ha [1, 5]: 80 to 100%
pest or weed control at 100 g/ha [2, 6]: 80 to 100%
pest or weed control at 100 g/ha [2, 7]: 60 to 79%

CC(C)(C)C(O)(c1cncnc1)c1ccc(-c2ccc(Cl)cc2)cc1Cl (stereo not drawn) [Compound 22]
pest or weed control at 100 g/ha [1, 4]: 80 to 100%
pest or weed control at 100 g/ha [1, 5]: 80 to 100%
pest or weed control at 100 g/ha [2, 6]: 80 to 100%
pest or weed control at 100 g/ha [2, 7]: 80 to 100%

CC(C)(C)C(O)(c1cncnc1)c1ccc(-c2ccc(C(F)(F)F)nc2)cc1Cl (stereo not drawn) [Compound 23]
pest or weed control at 100 g/ha [1, 4]: 80 to 100%
pest or weed control at 100 g/ha [1, 5]: 80 to 100%
pest or weed control at 100 g/ha [2, 6]: 80 to 100%
pest or weed control at 100 g/ha [2, 7]: 80 to 100%

CC(C)(C)C(O)(c1cncnc1)c1ccc(-c2ccc(C(F)(F)F)nc2)cc1F (stereo not drawn) [Compound 24]
pest or weed control at 100 g/ha [1, 4]: 80 to 100%
pest or weed control at 100 g/ha [1, 5]: 80 to 100%
pest or weed control at 100 g/ha [2, 6]: 80 to 100%
pest or weed control at 100 g/ha [2, 7]: 80 to 100%

Cc1cc(-c2ccc(OC(F)(F)F)cc2)ccc1C(O)(c1cncnc1)C(C)(C)C (stereo not drawn) [Compound 34]
pest or weed control at 50 ppm [3]: 80 to 100%

Cc1cc(-c2ccc(SC(F)(F)F)cc2)ccc1C(O)(c1cncnc1)C(C)(C)C (stereo not drawn) [Compound 35]
pest or weed control at 50 ppm [3]: 80 to 100%

Cc1cc(-c2ccc(OC(F)F)cc2)ccc1C(O)(c1cncnc1)C(C)(C)C (stereo not drawn) [Compound 36]
pest or weed control at 50 ppm [3]: 80 to 100%

Cc1cc(-c2ccc(C#N)cc2)ccc1C(O)(c1cncnc1)C(C)(C)C (stereo not drawn) [Compound 37]
pest or weed control at 50 ppm [3]: 80 to 100%

Cc1cc(-c2ccc(C3(C#N)CC3)cc2)ccc1C(O)(c1cncnc1)C(C)(C)C (stereo not drawn) [Compound 38]
pest or weed control at 50 ppm [3]: 80 to 100%

Cc1cc(-c2ccc(C(C)(C)C)cc2)ccc1C(O)(c1cncnc1)C(C)(C)C (stereo not drawn) [Compound 39]
pest or weed control at 50 ppm [3]: 80 to 100%

Cc1cc(OC(F)(F)F)ccc1-c1ccc(C(O)(c2cncnc2)C(C)(C)C)c(C)c1 (stereo not drawn) [Compound 40]
pest or weed control at 50 ppm [3]: 80 to 100%

Cc1cc(-c2ccc(OC(F)(F)F)cc2F)ccc1C(O)(c1cncnc1)C(C)(C)C (stereo not drawn) [Compound 41]
pest or weed control at 50 ppm [3]: 80 to 100%

Cc1cc(-c2ccc(C(C)(C)C#N)cc2)ccc1C(O)(c1cncnc1)C(C)(C)C (stereo not drawn) [Compound 42]
pest or weed control at 50 ppm [3]: 80 to 100%

Cc1cc(-c2ccc(CC#N)cc2)ccc1C(O)(c1cncnc1)C(C)(C)C (stereo not drawn) [Compound 43]
pest or weed control at 50 ppm [3]: 40 to 59%

COc1cc(-c2ccc(OC(F)(F)F)cc2)ccc1C(O)(c1cncnc1)C(C)(C)C (stereo not drawn) [Compound 44]
pest or weed control at 50 ppm [3]: 80 to 100%

COc1cc(-c2ccc(OC(F)F)cc2)ccc1C(O)(c1cncnc1)C(C)(C)C (stereo not drawn) [Compound 45]
pest or weed control at 50 ppm [3]: 80 to 100%

COc1cc(-c2ccc(SC(F)(F)F)cc2)ccc1C(O)(c1cncnc1)C(C)(C)C (stereo not drawn) [Compound 46]
pest or weed control at 50 ppm [3]: 80 to 100%

COc1cc(-c2ccc(C#N)cc2)ccc1C(O)(c1cncnc1)C(C)(C)C (stereo not drawn) [Compound 47]
pest or weed control at 50 ppm [3]: 80 to 100%

COc1cc(-c2ccc(CC#N)cc2)ccc1C(O)(c1cncnc1)C(C)(C)C (stereo not drawn) [Compound 48]
pest or weed control at 50 ppm [3]: 80 to 100%

COc1cc(-c2ccc(C3(C#N)CC3)cc2)ccc1C(O)(c1cncnc1)C(C)(C)C (stereo not drawn) [Compound 49]
pest or weed control at 50 ppm [3]: 80 to 100%

COc1cc(-c2ccc(C(C)(C)C)cc2)ccc1C(O)(c1cncnc1)C(C)(C)C (stereo not drawn) [Compound 51]
pest or weed control at 50 ppm [3]: 80 to 100%

COc1cc(-c2ccc(OC(F)(F)F)cc2C)ccc1C(O)(c1cncnc1)C(C)(C)C (stereo not drawn) [Compound 52]
pest or weed control at 50 ppm [3]: 60 to 79%

COc1cc(-c2ccc(OC(F)(F)F)cc2F)ccc1C(O)(c1cncnc1)C(C)(C)C (stereo not drawn) [Compound 53]
pest or weed control at 50 ppm [3]: 80 to 100%

CC(C)(C)C(O)(c1ccc(-c2ccc(OC(F)(F)F)cc2)cc1)c1cccnc1 (stereo not drawn) [Compound 54]
pest or weed control at 50 ppm [3]: 80 to 100%

CC(C)(C)C(O)(c1ccc(-c2ccc(SC(F)(F)F)cc2)cc1)c1cccnc1 (stereo not drawn) [Compound 55]
pest or weed control at 50 ppm [3]: 80 to 100%

CC(C)(C)C(O)(c1ccc(-c2ccc(OC(F)F)cc2)cc1)c1cccnc1 (stereo not drawn) [Compound 56]
pest or weed control at 50 ppm [3]: 80 to 100%

CC(C)(C)C(O)(c1ccc(-c2ccc(OCC(F)(F)F)cc2)cc1)c1cccnc1 (stereo not drawn) [Compound 57]
pest or weed control at 50 ppm [3]: 80 to 100%

CC(C)(C)C(O)(c1ccc(-c2ccc(C#N)cc2)cc1)c1cccnc1 (stereo not drawn) [Compound 58]
pest or weed control at 50 ppm [3]: 80 to 100%

CC(C)(C)C(O)(c1ccc(-c2ccc(CC#N)cc2)cc1)c1cccnc1 (stereo not drawn) [Compound 59]
pest or weed control at 50 ppm [3]: 80 to 100%

CC(C)(C)C(O)(c1ccc(-c2ccc(C3(C#N)CC3)cc2)cc1)c1cccnc1 (stereo not drawn) [Compound 60]
pest or weed control at 50 ppm [3]: 80 to 100%

CC(C)(C#N)c1ccc(-c2ccc(C(O)(c3cccnc3)C(C)(C)C)cc2)cc1 (stereo not drawn) [Compound 61]
pest or weed control at 50 ppm [3]: 80 to 100%

CC(C)(C)c1ccc(-c2ccc(C(O)(c3cccnc3)C(C)(C)C)cc2)cc1 (stereo not drawn) [Compound 62]
pest or weed control at 50 ppm [3]: 80 to 100%

Cc1cc(OC(F)(F)F)ccc1-c1ccc(C(O)(c2cccnc2)C(C)(C)C)cc1 (stereo not drawn) [Compound 63]
pest or weed control at 50 ppm [3]: 80 to 100%
